Data reported in patent publication US8697649B2, “Polypeptides, nucleic acid molecule encoding polypeptides, and uses of polypeptides” (China Medical University, priority 2012, dated 2014).
“Also recorded” adds a separate entry of the source. Read-outs that look alike come from different tables or passages of the source. Values belong to the sequence of their own block, whether it stands above or below them. Where no end group is shown, it is not given here.

What was measured:
[1] = molecular target: insulin receptor tyrosine kinase (Homo sapiens, UniProt P06213); assay: Receptor binding assay by insulin receptor tyrosine kinase activity; type: biochemical; settings: poly(Glu,Tyr) substrate, [γ-32P]ATP
Procedure: The sample was placed in an ice bath for 10 minutes. Then, TCA was added thereinto to precipitate the substrate (poly(Glu,Tyr)) on a filter paper.

[2] = tested on: mice (BALB/c, STZ-induced, ob/ob); assay: Blood sugar reducing assay; type: in vivo; settings: 2.5×10^−9 mole/kg intraperitoneal, 150 minutes
Procedure: IRBP-1-68 (SEQ ID NO:1), the polypeptides having the segmental amino acid sequences of IRBP, and the polypeptides derived from the substitution of multiple amino acids in the segmental amino acid sequences were analyzed by a blood sugar reducing assay. […] The polypeptides (100 μl, 2.5×10^−9 mole/kg body weight) as shown in Table 11 were administrated to each mouse in an experimental group by intraperitoneal injection. Each mouse in the control group was administrated with 100 μl water. […] After 150 minutes, blood samples were collected from the mouse tails, while the blood sugar value was measured by a glucometer (ACCU-CHEK Advantage, Roche, Germany). The blood sugar values of the mice in the experimental group and control group were compared and analyzed.

insulin receptor [3] = molecular target: T1, insulin receptor (Homo sapiens, UniProt P06213); assay: Whole cell receptor binding assay with 125I-labeled insulin (IM-9 cells)
T1 construct: endogenous in cells; host or cells: IM-9 human lymphocyte cell line
Procedure: After incubation, the cells were chilled, centrifuged at 2000 rpm for 10 min at 4° C., and the pellets were washed twice with an ice-cold wash buffer (10 mmol/L Tris and 150 mmol/L NaCl, pH 7.6). The pellet was counted by a gamma counter. The assays were performed at least three times for each polypeptide. […] The lower value of EC50 represents a stronger effect on promoting the binding.

3T3-L1 adipocytes [4] = assay: Western blotting analysis of insulin signal pathway-related proteins; type: cell-based; settings: 3T3-L1 adipocytes treated 16 hours, FIG. 3
Procedure: 3T3-L1 adipocytes were cultured at 37° C. for 24 hours, treated with IRBP-1-68 (SEQ ID NO:1) for 16 hours, collected using a cell scraper after being washed with ice-cold PBS, and lysed with a 300 μl sample buffer (62.5 mM Tris-HCl, pH 6.8, 2% sodium dodecyl sulfate, 10% glycerol, 50 mM dithiothreitol, 0.1% bromophenol blue). The protein concentration of the cell lysate was determined with a Bradford method (Bio-Rad, Hercules, Calif., USA). The proteins (10 μg) were separated by SDS-PAGE and the protein bands were then transferred electrophoretically to nitrocellulose membranes (Amersham Pharmacia Biotech Inc., Piscataway, N.J., USA). Membranes were blocked in blocking buffer (20 mM Tris-HCl, pH 7.6, 140 mM NaCl, 0.1% Tween-20, 5% skim milk powder) and probed with anti-Akt, anti-phospho-Akt (Ser473), anti-phospho-Akt (Thr308), anti-phospho-PTEN (phosphatase and tensin homolog deleted on Chromosome ten) (Ser380), anti-phospho-GSK-3β (glycogensynthasekinase-3β) (Ser9), anti-phospho-Raf (Ser259), anti-phospho-PDK1 (phosphoinositide-dependent kinase 1) (Ser241) antibodies (Cell Signaling Technology, Beverly, Mass., USA). The result was shown in FIG. 3, wherein the values shown in FIG. 3 represent the intensity of the bands in western blotting analysis. A higher value represents a higher expression level of the target protein.

insulin receptor [5] = molecular target: T1, insulin receptor; assay: Insulin receptor autophosphorylation assay in IM-9 cells; type: cell-based; settings: stimulated 15 min at 37° C., immunoblotting, FIG. 2
Procedure: The assay was conducted by the following steps: The human lymphocyte cell line (IM-9) was serum-starved (RPMI medium supplemented with 0.1% BSA) for 16 h and then stimulated with IRBP-1-68 (SEQ ID NO:1) for 15 min at 37° C., and washed with cold PBS. The cells were lysed to obtain about […] of total proteins, while the immunoprecipitation was conducted by the anti-insulin receptor polyclonal antibody (C-19). Then, the protein was adsorbed onto protein G-agarose beads (Gibco-BRL, Gaithersburg, Md.) for 2 h at 4° C., resolved by SDS-PAGE, and transferred to an Immobilon-P membrane by electroblotting. The membrane was incubated with antiphosphotyrosine antibody (4G10) overnight at 4° C. to conduct the immunoblotting analysis. In FIG. 2, the broader band of the immunoblotting analysis represents a higher protein expression level.

3T3-L1 adipocytes [6] = assay: Immunochemical analysis of GLUT4; type: cell-based; settings: FIG. 4
Procedure: Immunochemical analysis was conducted by the following method: 3T3-L1 adipocytes were cultured and fixed on a cover slide, and incubated with a 1:50 diluted mouse monoclonal antibody against GLUT4 (Millipore, Billerica, Mass., USA) at 4° C. overnight. Then, the cells were incubated with biotinylated secondary antibody (Zymed Laboratories, South San Francisco, Calif., USA) at room temperature for 20 min. Then, the slides were incubated with avidin-biotin complex reagent and stained with 3,3′-diaminobenzidine (HISTOSTAIN®-Plus Kit, Zymed Laboratories, South San Francisco, Calif., USA).

3T3-L1 adipocytes [7] = assay: Microarray analysis; type: cell-based; settings: expression increased or decreased up to 2 folds
Procedure: Total RNAs were extracted from 3T3-L1 adipocytes which were or were not treated with IRBP-1-68 (SEQ ID NO:1) using RNeasy Mini kit (Qiagen, Valencia, Calif., USA). Total RNA was evaluated using Agilent 2100 bioanalyzer (Agilent Technologies, Santa Clara, Calif., USA). The RNA sample with an RNA integrity number greater than 8.0 was selected. Microarray analysis was performed as described previously (see Cheng, W. Y. et al., 2009, Comprehensive evaluation of a novel nuclear factor-κB inhibitor, quinoclamine, by transcriptomic analysis. Brit. J. Pharmacol. 157(5): 746-756; Cheng, H. M. et al., 2010, Application of bioactivity database of Chinese herbal medicine on the therapeutic prediction, drug development, and safety evaluation. J. Ethnopharmacol. 132 (2): 429-437; and Hsiang, C. Y. et al., 2009, Nuclear factor-κB bioluminescence imaging-guided transcriptomic analysis for the assessment of hoist-biomaterial interaction in vivo. Biomaterials 30 (17): 3042-3049, which are entirely incorporated hereinto by reference).

3T3-L1 adipocytes [8] = assay: Glucose uptake assay; type: cell-based; settings: 1 nM insulin plus IRBP-1-68, 30 min, [3H]-2-deoxy-D-glucose 10 min
Text: A key step for modulating blood sugar is that adipose tissue can uptake glucose from the blood and thereby, reduce blood sugar. Accordingly, this example further used 3T3-L1 adipocytes as an assay platform to conduct the glucose uptake assay. […] The cells were washed three times with ice-cold phosphate buffered saline (PBS) and then solubilized in 0.1% SDS.

[9] = tested on: diabetic mice (STZ-induced); assay: Glycated hemoglobin value assay; type: in vivo; settings: 1×10^−6 mole/kg oral, after 28 days
Procedure: Glycated hemoglobin value (HbAlc) is the concentration of glucose attached on red blood cells in the blood of an organism. In general, a higher concentration of blood sugar reflects a higher glycated hemoglobin value, while the glycated hemoglobin value is a standard for evaluating the effect of a medicament on treating diabetes. Therefore, in this example, the effect of the polypeptide on controlling the blood sugar values of the mice were evaluated by measuring the glycated hemoglobin value.
In the experimental group, the polypeptides (1×10^−6 mole/kg body weight, 20 μl) were orally administrated to each mouse in the experimental group. In the control group, each mouse was administrated by 20 μl water. The glycated hemoglobin value was measured after 28 days.

diabetic mice [10] = assay: Measurement of renal index; type: in vivo; settings: oral, after 28 days, blood
Procedure: After 28 days, the kidney indexes (BUN and CRE) in the blood of these mice were measured to evaluate the effects of these polypeptides on the renal disorders caused by diabetes.

diabetic mice [11] = assay: Measurement of liver index; type: in vivo; settings: oral, after 28 days
Procedure: The polypeptide of IRBP-50-68 (SEQ ID NO:6) was orally administrated to the diabetic mice in the experimental group by the same method as described in Example 14. After 28 days, the liver indexes (GOT and GPT) of these mice were measured to evaluate the effect of the polypeptide on the hepato disorders caused by diabetes in diabetic mice.

[12] = STZ-induced mice, glucose 1 g/kg

Sequence: RYKYQCWYI (optimal docking polypeptide of insulin receptor) [IRBP-9D]
activity of insulin receptor tyrosine kinase [1]: 65.95 ± 1.74 U/ml

Sequence: RYKYQWWYI (optimal docking polypeptide of insulin receptor) [IRBP-9C]
activity of insulin receptor tyrosine kinase [1]: 44.18 ± 3.61 U/ml
blood sugar inhibition ratio [2, 12]: 22.6 ± 9.0%

Sequence: RYKYQWFYI (optimal docking polypeptide of insulin receptor) [IRBP-9A]
activity of insulin receptor tyrosine kinase [1]: 40.34 ± 1.94 U/ml
blood sugar inhibition ratio [2, 12]: 34.2 ± 13.6%

Sequence: RYKYQCFYI (optimal docking polypeptide of insulin receptor) [IRBP-9B]
activity of insulin receptor tyrosine kinase [1]: 79.76±5.64 U/ml
blood sugar inhibition ratio ([2]; BALB/c mice, glucose 4 g/kg): 61.0 ± 2.5 %

Sequence: SRCQGKSSWPQLVGSTGAAAKAVIERENPRVRAVIIKVGSGATKDFRCDRVRVWVTERGIVARPPTIG [IRBP-1-68]
protein expression levels of insulin signal pathway-related genes (PDK-1, phosphorylated-AKt Thr 308, phosphorylated-AKt Ser 473, GLUT4) (3T3-L1 adipocytes [4]): can increase the protein expression levels
insulin receptor autophosphorylation (ratio of phosphorylated insulin receptor to insulin receptor) (insulin receptor [5]): increased along with the increment of IRBP-1-68 (SEQ ID NO:1) concentration; also recorded: can induce insulin receptor autophosphorylation
GLUT4 expression by immunochemical staining (3T3-L1 adipocytes [6]): can promote 3T3-L1 adipocytes to express GLUT4
number of the genes with changed expression level (total gene number of the pathway) (3T3-L1 adipocytes [7]; adipocytokine signal pathway): 16 (71)
number of the genes with changed expression level (total gene number of the pathway) (3T3-L1 adipocytes [7]; insulin signal pathway): 28 (136)
Ratio (radioactivity, glucose uptake) (3T3-L1 adipocytes [8]): 1.79 ± 0.49
blood sugar inhibition ratio ([2]; BALB/c mice, glucose 4 g/kg): 68.9 ± 0.9 %
blood sugar inhibition ratio [2, 12]: 37.3 ± 3.8%
blood sugar inhibition ratio ([2]; ob/ob mice, glucose 1 g/kg): 55.6 ± 12.9 %

Sequence: GAAAKAVIERENPRVRVI [IRBP-17-35]
EC50 (insulin receptor [3]): > 25 nM

Sequence: IVARPPTIG [IRBP-60-68]
EC50 (insulin receptor [3]): 0.77 ± 0.04 nM
glycated hemoglobin value [9]: 5.73 ± 0.11 %
BUN (diabetic mice [10]): 73.17 ± 29.95
CRE (diabetic mice [10]): 0.17 ± 0.04

Sequence: RVRVWVTERGIVARPPTIG [IRBP-50-68]
glycated hemoglobin value [9]: 5.93 ± 0.55 %
BUN (diabetic mice [10]): 107.25 ± 42.99
CRE (diabetic mice [10]): 0.191 ± 0.12
GOT (diabetic mice [11]): 247.89 ± 97.38
GPT (diabetic mice [11]): 135.72 ± 30.72

Second part, the sequence after the results:

EC50 (insulin receptor [3]; IM-9 cells, 16° C., 90 min): > 25 nM
Sequence: VIIKVGSGATKDFRCDRVR [IRBP-34-52]

EC50 (insulin receptor [3]; IM-9 cells, 16° C., 90 min): 0.77 ± 0.02 nM
Sequence: IVYQVPTIG [IRBP-MT]

EC50 (insulin receptor [3]; IM-9 cells, 16° C., 90 min): > 25 nM
Sequence: DFRCDRVRVWVTERGIVARPPTIG [IRBP-45-68]

EC50 (insulin receptor [3]; IM-9 cells, 16° C., 90 min): 0.86 ± 0.05 nM
Sequence: IVARPPAIG [IRBP-MC]
